Reference: the NIST ThermoML archive (doi:10.1016/j.jct.2013.09.017)
Numbers after ± are expanded uncertainties.

Assay: xn = mol fraction of the nth substance listed
Settings: 101 kPa, Liquid; for viscosity: Capillary tube (Ostwald / Ubbelohde) method; for mass density: Vibrating tube method

CCCCCCCCN(CCCCCCCC)CCCCCCCC [trioctylamine] + CCCCCCC
Settings | mass density, 283.15 K [kg/m3] | mass density, 293.15 K [kg/m3] | mass density, 303.15 K [kg/m3] | viscosity, 283.15 K [mPa·s] | viscosity, 293.15 K [mPa·s] | viscosity, 303.15 K [mPa·s]
x1 = 0.0102 | 696.37 ± 0.26 | 688.04 ± 0.26 | 679.6 ± 0.26 | 0.494 ± 0.011 | 0.44 ± 0.01 | 0.394 ± 0.009
x1 = 0.103 | 726.07 ± 0.27 | 718.22 ± 0.27 | 710.29 ± 0.27 | 0.856 ± 0.019 | 0.738 ± 0.016 | 0.642 ± 0.014
x1 = 0.2636 | 759.83 ± 0.31 | 752.47 ± 0.31 | 745.07 ± 0.31 | 1.827 ± 0.04 | 1.51 ± 0.033 | 1.269 ± 0.028
x1 = 0.3223 | 768.63 ± 0.33 | 761.41 ± 0.33 | 754.13 ± 0.33 | 2.321 ± 0.051 | 1.899 ± 0.042 | 1.569 ± 0.035
x1 = 0.409 | 779.4 ± 0.36 | 772.31 ± 0.36 | 765.19 ± 0.36 | 3.241 ± 0.072 | 2.57 ± 0.057 | 2.055 ± 0.046
x1 = 0.5079 | 789.24 ± 0.4 | 782.28 ± 0.39 | 775.31 ± 0.39 | 4.499 ± 0.1 | 3.464 ± 0.078 | 2.734 ± 0.062
x1 = 0.5997 | 796.55 ± 0.44 | 789.72 ± 0.43 | 782.85 ± 0.43 | 5.814 ± 0.13 | 4.377 ± 0.1 | 3.374 ± 0.077
x1 = 0.7019 | 803.32 ± 0.48 | 796.55 ± 0.48 | 789.77 ± 0.48 | 7.438 ± 0.17 | 5.434 ± 0.13 | 4.107 ± 0.095
x1 = 0.8063 | 808.97 ± 0.53 | 802.27 ± 0.53 | 795.57 ± 0.53 | 9.477 ± 0.22 | 6.792 ± 0.16 | 5 ± 0.12
x1 = 0.906 | 813.43 ± 0.59 | 806.79 ± 0.58 | 800.15 ± 0.58 | 11.64 ± 0.27 | 8.231 ± 0.19 | 5.972 ± 0.14
x1 = 1 | 817.08 ± 0.64 | 810.48 ± 0.64 | 803.88 ± 0.63 | 14.25 ± 0.34 | 9.957 ± 0.24 | 7.114 ± 0.17
